The values that follow come from PubChem BioAssay (NCI).

Test systems include OVCAR-4 ovarian; MDA-N; HOP-92 NSCLC; HCT-116 colon; K-562 leukemia; HOP-62 NSCLC; NCI-H522 lung; SF-539 CNS; EKVX NSCLC; CAKI-1 renal.
What all share (test): DTP human tumour cell line panel, 48 h

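Method: 48-hour compound exposure of cells in 96-well plates, five concentrations, linear interpolation of endpoints. TGI marks complete inhibition of growth.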

For the compound `Cc1cccc(NC(=S)N/N=C(/c2ccccc2)c2ccccn2)c1`, the TGI in the experiment on OVCAR-4 ovarian worked out at 17.2 µM; with MDA-N it was 20.8 µM; in the experiment with HOP-92 NSCLC, 15.7 µM; in the experiment on HCT-116 colon, 13 µM; in the experiment on K-562 leukemia it was 2.84 µM; in the experiment on HOP-62 NSCLC it was 17.5 µM. Also, the concentration for total growth inhibition (TGI) turned out to be 14.6 µM with NCI-H522 lung, 12.8 µM in the experiment with SF-539 CNS, 4.08 µM with EKVX NSCLC and 12.7 µM in the experiment on CAKI-1 renal.
Take `CCN(CC)C1=Nc2ccccc2-n2c(C)cnc2C1`: the TGI with OVCAR-4 ovarian, in the experiment with MDA-N, in the experiment with HOP-92 NSCLC, in the experiment on HCT-116 colon, in the experiment on K-562 leukemia and with NCI-H522 lung was more than 100 µM each time. The TGI in the experiment with SF-539 CNS, in the experiment with EKVX NSCLC and in the experiment with CAKI-1 renal was more than 100 µM in each case.
For the compound `CCOP(C)(=O)C(Nc1ccc(F)cc1)c1ccc(F)cc1` (stereo not drawn), the TGI with OVCAR-4 ovarian, in the experiment with MDA-N, in the experiment with HOP-92 NSCLC, in the experiment with HCT-116 colon, in the experiment on K-562 leukemia and in the experiment on HOP-62 NSCLC was more than 100 µM in each case. The total growth inhibition concentration (TGI) in the experiment with NCI-H522 lung, in the experiment on SF-539 CNS, with EKVX NSCLC and with CAKI-1 renal was more than 100 µM throughout.
In the case of `CC(C)=CCC[C@H](C)[C@H]1CC[C@@H](C)c2cc(O)c(C)cc21`, the total growth inhibition concentration (TGI) with OVCAR-4 ovarian came out at 31.5 µM; in the experiment with MDA-N, 32.1 µM; in the experiment with HOP-92 NSCLC it was 32.2 µM; with HCT-116 colon, 32.9 µM; with K-562 leukemia, 46.8 µM; in the experiment on HOP-62 NSCLC, 35.6 µM. Further, the TGI came out at 32.4 µM in the experiment with NCI-H522 lung, 33.8 µM with SF-539 CNS, 33.4 µM in the experiment on EKVX NSCLC and 31.9 µM in the experiment with CAKI-1 renal.
For `CC1(C)OC(=S)N(c2ccccc2)C12C=Cc1cc3ccccc3cc1O2` (stereo not drawn), the TGI with OVCAR-4 ovarian, with MDA-N, in the experiment with HOP-92 NSCLC, in the experiment on HCT-116 colon, with K-562 leukemia and in the experiment with HOP-62 NSCLC was more than 100 µM each time. The total growth inhibition concentration (TGI) with EKVX NSCLC and with CAKI-1 renal was more than 100 µM throughout.
With `Cn1cnc([N+](=O)[O-])c1Sc1nc(N)nc2c1ncn2Cc1ccccc1`, the concentration for total growth inhibition (TGI) was more than 100 µM in the experiment on OVCAR-4 ovarian; 44.9 µM in the experiment with MDA-N; 35.9 µM with HOP-92 NSCLC; 42.1 µM in the experiment on HCT-116 colon; more than 100 µM with K-562 leukemia; 55.4 µM in the experiment on HOP-62 NSCLC. The TGI with NCI-H522 lung amounted to 24.1 µM; in the experiment with EKVX NSCLC, 42.3 µM; in the experiment with CAKI-1 renal it was 31.1 µM.
As for `Cc1ccc(C)c(NC(=O)C(Cc2c[nH]c3ccccc23)NC(=O)OCc2ccccc2)c1` (stereo not drawn), the concentration for total growth inhibition (TGI) with OVCAR-4 ovarian was 25 µM; in the experiment with MDA-N, more than 100 µM; in the experiment on HOP-92 NSCLC it was 57.5 µM; in the experiment on HCT-116 colon it was 98.6 µM; in the experiment on K-562 leukemia, 28.9 µM; in the experiment on HOP-62 NSCLC, more than 100 µM. Further, the concentration for total growth inhibition (TGI) in the experiment on NCI-H522 lung is 69.1 µM; with SF-539 CNS, 21.5 µM; in the experiment on EKVX NSCLC, 49 µM; with CAKI-1 renal, 56.7 µM.
In the case of `CC1Cc2cc(O)ccc2C2[C@@H]1C1CC[C@H](O)[C@@]1(C)C[C@@H]2O[N+](=O)[O-]` (stereo partly drawn), the total growth inhibition concentration (TGI) in the experiment on OVCAR-4 ovarian was more than 100 µM; in the experiment with MDA-N, 6.07 µM; in the experiment on HOP-92 NSCLC it was 97.6 µM; in the experiment on HCT-116 colon, 31.1 µM; with K-562 leukemia, 49.4 µM; with HOP-62 NSCLC it was 44.4 µM. In addition, the TGI in the experiment with NCI-H522 lung was 61.3 µM; in the experiment on SF-539 CNS, 18.9 µM; in the experiment on EKVX NSCLC, more than 100 µM; with CAKI-1 renal, 73.6 µM.
With `CCN(CC)c1nc(N(C)C)c2cc(OC)ccc2n1`, the total growth inhibition concentration (TGI) in the experiment on OVCAR-4 ovarian, in the experiment with MDA-N, in the experiment with HOP-92 NSCLC, in the experiment with HCT-116 colon, with K-562 leukemia and in the experiment on HOP-62 NSCLC was more than 100 µM in each case. The TGI in the experiment with NCI-H522 lung is 66.9 µM; in the experiment on SF-539 CNS it was 55.5 µM; in the experiment on EKVX NSCLC, more than 100 µM; in the experiment with CAKI-1 renal, more than 100 µM.
`O=C1NN(c2ccccc2)C(=O)C2C3c4ccccc4C(c4ccccc43)C12` (stereo not drawn): the total growth inhibition concentration (TGI) in the experiment with OVCAR-4 ovarian, in the experiment on MDA-N, in the experiment on HOP-92 NSCLC, with HCT-116 colon, in the experiment on K-562 leukemia and in the experiment with HOP-62 NSCLC was more than 100 µM each time. The concentration for total growth inhibition (TGI) in the experiment with NCI-H522 lung, in the experiment on SF-539 CNS, with EKVX NSCLC and in the experiment with CAKI-1 renal was more than 100 µM each time.
As to `CC(=O)OC1COC(Nn2c(=O)[nH]c3ccccc3c2=O)C(OC(C)=O)C1OC(C)=O` (stereo not drawn), the TGI in the experiment on MDA-N, with HOP-92 NSCLC, with HCT-116 colon, in the experiment on K-562 leukemia, in the experiment on HOP-62 NSCLC and in the experiment on SF-539 CNS was more than 100 µM in each case. Also, the total growth inhibition concentration (TGI) in the experiment on EKVX NSCLC and with CAKI-1 renal was more than 100 µM each time.
As to `Cc1nc(C)c(N2CCN(C#N)CC2)c(=O)[nH]1`, the TGI in the experiment with OVCAR-4 ovarian, in the experiment on MDA-N, with HOP-92 NSCLC, in the experiment with HCT-116 colon, in the experiment with K-562 leukemia and in the experiment with HOP-62 NSCLC was more than 100 µM throughout. For the same compound, the TGI in the experiment with NCI-H522 lung, in the experiment on SF-539 CNS, in the experiment on EKVX NSCLC and with CAKI-1 renal was more than 100 µM throughout.
`CCOP(=O)(OCC)/C(C#N)=C/c1c(C)[nH]c2ccccc12`: the TGI with OVCAR-4 ovarian, in the experiment with MDA-N, with HOP-92 NSCLC, in the experiment on HCT-116 colon, in the experiment with K-562 leukemia and in the experiment on HOP-62 NSCLC was more than 100 µM each time. Moreover, the total growth inhibition concentration (TGI) in the experiment with NCI-H522 lung, with SF-539 CNS, in the experiment with EKVX NSCLC and in the experiment on CAKI-1 renal was more than 100 µM each time.
`COc1cccc(-n2c(N)c(-c3nc4cc(C(F)(F)F)ccc4s3)c3ccc([N+](=O)[O-])cc3c2=O)c1`: the TGI in the experiment with OVCAR-4 ovarian, in the experiment with MDA-N, with HOP-92 NSCLC, in the experiment with HCT-116 colon, in the experiment on K-562 leukemia and with HOP-62 NSCLC was more than 100 µM throughout. Further, the TGI with NCI-H522 lung, in the experiment on EKVX NSCLC and in the experiment on CAKI-1 renal was more than 100 µM each time.
